Reference: PubChem BioAssay AID270 (DTP/NCI, 2004)
Values joined by “and” are separate entries in the source; they are usually repeats but may differ in a detail not shown here. Equal entries are not always repeated. Records with an inconclusive call do not appear.

Tested on: BDF1 mice, s.c. Lewis lung carcinoma, T/C %
Assay: NCI In Vivo Anticancer Drug Screen. Data for tumor model Lewis Lung Carcinoma (subcutaneous) in B6D2F1 (BDF1) mice
Procedure, shortened: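 Readout: survival or tumor size, expressed as treated (T) over vehicle control (C). Transplantable tumor implanted in mice; compound given to the treated group.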

[1] = endpoint: median survival time, dose: 1.0 mg/kg/injection, schedule: Q01DX009 (ip), vehicle: saline, higher = longer survival
[2] = endpoint: median survival time, dose: 2.0 mg/kg/injection, schedule: Q01DX009 (ip), vehicle: saline, higher = longer survival
[3] = endpoint: median survival time, dose: 4.0 mg/kg/injection, schedule: Q01DX009 (ip), vehicle: saline, higher = longer survival

## S=c1nc[nH]c2nc[nH]c12
endpoint: mean tumor weight, dose: 5.0 mg/kg/injection, schedule: Q01DX011 (ip), vehicle: alkali diluted with saline, higher = larger tumour
  T/C: 58 % of control
endpoint: mean tumor weight, dose: 10.0 mg/kg/injection, schedule: Q01DX011 (ip), vehicle: alkali diluted with saline, higher = larger tumour
  T/C: 60 % of control
endpoint: mean tumor weight, dose: 12.5 mg/kg/injection, schedule: Q01DX011 (ip), vehicle: alkali diluted with saline, higher = larger tumour
  T/C: 62 % of control
endpoint: mean tumor weight, dose: 20.0 mg/kg/injection, schedule: Q01DX011 (ip), vehicle: alkali diluted with saline, higher = larger tumour
  T/C: 51 % of control
endpoint: mean tumor weight, dose: 25.0 mg/kg/injection, schedule: Q01DX011 (ip), vehicle: alkali diluted with saline, higher = larger tumour
  T/C: 66 % of control
endpoint: mean tumor weight, dose: 50.0 mg/kg/injection, schedule: Q01DX011 (ip), vehicle: alkali diluted with saline, higher = larger tumour
  T/C: 62 % of control
endpoint: median survival time, dose: 0.3 mg/kg/injection, schedule: Q01DX000 (ip), vehicle: alkali diluted with saline, higher = longer survival
  T/C: 106 % of control
[1]
  T/C: 106 % of control
[2]
  T/C: 121 % of control
endpoint: median survival time, dose: 3.0 mg/kg/injection, schedule: Q01DX000 (ip), vehicle: alkali diluted with saline, higher = longer survival
  T/C: 101 % of control
[3]
  T/C: 117 % of control
endpoint: median survival time, dose: 8.0 mg/kg/injection, schedule: Q01DX009 (ip), vehicle: saline, higher = longer survival
  T/C: 121 % of control
endpoint: median survival time, dose: 10.0 mg/kg/injection, schedule: Q01DX011 (ip), vehicle: alkali diluted with saline, higher = longer survival
  T/C: 98 % of control
endpoint: median survival time, dose: 15.0 mg/kg/injection, schedule: Q01DX009 (ip), vehicle: saline with Tween-80, higher = longer survival
  T/C: 108 % of control
endpoint: median survival time, dose: 20.0 mg/kg/injection, schedule: Q01DX011 (ip), vehicle: alkali diluted with saline, higher = longer survival
  T/C: 91 % of control
endpoint: median survival time, dose: 30.0 mg/kg/injection, schedule: Q01DX000 (ip), vehicle: alkali diluted with saline, higher = longer survival
  T/C: 97 % of control
endpoint: median survival time, dose: 30.0 mg/kg/injection, schedule: Q01DX009 (ip), vehicle: Klucel (hydroxypropylcellulose) (HPC), higher = longer survival
  T/C: 104 % of control
endpoint: median survival time, dose: 40.0 mg/kg/injection, schedule: Q01DX011 (ip), vehicle: alkali diluted with saline, higher = longer survival
  T/C: 89 % of control
endpoint: median tumor weight (est.), dose: 15.0 mg/kg/injection, schedule: Q01DX009 (ip), vehicle: saline with Tween-80, higher = larger tumour
  T/C: 79 % of control
endpoint: median tumor weight (est.), dose: 30.0 mg/kg/injection, schedule: Q01DX009 (ip), vehicle: saline with Tween-80, higher = larger tumour
  T/C: 72 % of control
endpoint: median tumor weight (est.), dose: 35.0 mg/kg/injection, schedule: Q01DX011 (ip), vehicle: alkali diluted with saline, higher = larger tumour
  T/C: 44 % of control
endpoint: median tumor weight (est.), dose: 51.0 mg/kg/injection, schedule: Q01DX011 (ip), vehicle: alkali diluted with saline, higher = larger tumour
  T/C: 38 % of control
endpoint: median tumor weight (est.), dose: 80.0 mg/kg/injection, schedule: Q01DX011 (ip), vehicle: alkali diluted with saline, higher = larger tumour
  T/C: 70 % of control and 75 % of control and 93 % of control

## CN(C)c1nc(N(C)C)nc(N(C)C)n1
endpoint: median survival time, dose: 6.25 mg/kg/injection, schedule: Q08HX024 (ip), vehicle: Klucel (hydroxypropylcellulose) (HPC), higher = longer survival
  T/C: 106 % of control
endpoint: median survival time, dose: 12.5 mg/kg/injection, schedule: Q01DX009 (ip), vehicle: saline with Tween-80, higher = longer survival
  T/C: 93 % of control and 102 % of control
endpoint: median survival time, dose: 25.0 mg/kg/injection, schedule: Q01DX009 (ip), vehicle: saline with Tween-80, higher = longer survival
  T/C: 97 % of control and 102 % of control
endpoint: median survival time, dose: 25.0 mg/kg/injection, schedule: Q08HX024 (ip), vehicle: Klucel (hydroxypropylcellulose) (HPC), higher = longer survival
  T/C: 112 % of control
endpoint: median survival time, dose: 50.0 mg/kg/injection, schedule: Q01DX009 (ip), vehicle: saline with Tween-80, higher = longer survival
  T/C: 103 % of control and 110 % of control
endpoint: median survival time, dose: 100.0 mg/kg/injection, schedule: Q01DX009 (ip), vehicle: saline with Tween-80, higher = longer survival
  T/C: 102 % of control

## S=P(N1CC1)(N1CC1)N1CC1
endpoint: mean tumor weight, dose: 0.75 mg/kg/injection, schedule: Q01DX011 (ip), vehicle: water, higher = larger tumour
  T/C: 79 % of control
endpoint: mean tumor weight, dose: 1.5 mg/kg/injection, schedule: Q01DX011 (ip), vehicle: water, higher = larger tumour
  T/C: 81 % of control
endpoint: mean tumor weight, dose: 3.0 mg/kg/injection, schedule: Q01DX011 (ip), vehicle: water, higher = larger tumour
  T/C: 44 % of control
endpoint: mean tumor weight, dose: 6.0 mg/kg/injection, schedule: Q01DX011 (ip), vehicle: water, higher = larger tumour
  T/C: 21 % of control
endpoint: median survival time, dose: 0.5 mg/kg/injection, schedule: Q01DX009 (ip), vehicle: saline, higher = longer survival
  T/C: 103 % of control
[1]
  T/C: 100 % of control
endpoint: median survival time, dose: 1.0 mg/kg/injection, schedule: Q02DX009 (ip), vehicle: saline, higher = longer survival
  T/C: 110 % of control
endpoint: median survival time, dose: 1.5 mg/kg/injection, schedule: Q01DX009 (ip), vehicle: Klucel (hydroxypropylcellulose) (HPC), higher = longer survival
  T/C: 103 % of control
[2]
  T/C: 100 % of control
endpoint: median survival time, dose: 2.0 mg/kg/injection, schedule: Q02DX009 (ip), vehicle: saline, higher = longer survival
  T/C: 98 % of control
endpoint: median survival time, dose: 3.0 mg/kg/injection, schedule: Q01DX009 (ip), vehicle: Klucel (hydroxypropylcellulose) (HPC), higher = longer survival
  T/C: 113 % of control
[3]
  T/C: 86 % of control
endpoint: median survival time, dose: 4.0 mg/kg/injection, schedule: Q02DX009 (ip), vehicle: saline, higher = longer survival
  T/C: 102 % of control
endpoint: median survival time, dose: 8.0 mg/kg/injection, schedule: Q02DX009 (ip), vehicle: saline, higher = longer survival
  T/C: 94 % of control
